We go through nine molecules from publication PMC6143434 (Molecular neurobiology, 2018).

SMILES strings stand for the structures. “And” between values parts separate entries of the source, which are not always exact repeats. Identical values can stand only once. Counter-ions that a name gives are not always drawn. Like-named read-outs stand apart in the source and are kept apart here.

One test deals with human D2 receptor (Homo sapiens, UniProt P14416). In kind it is binding. To be noted: HEK-293T membranes, up to 10 μM; data not shown.
For another test, the target named is T1, human D4 receptor (Homo sapiens, UniProt P21917).
T1 sequence (P21917 1-419): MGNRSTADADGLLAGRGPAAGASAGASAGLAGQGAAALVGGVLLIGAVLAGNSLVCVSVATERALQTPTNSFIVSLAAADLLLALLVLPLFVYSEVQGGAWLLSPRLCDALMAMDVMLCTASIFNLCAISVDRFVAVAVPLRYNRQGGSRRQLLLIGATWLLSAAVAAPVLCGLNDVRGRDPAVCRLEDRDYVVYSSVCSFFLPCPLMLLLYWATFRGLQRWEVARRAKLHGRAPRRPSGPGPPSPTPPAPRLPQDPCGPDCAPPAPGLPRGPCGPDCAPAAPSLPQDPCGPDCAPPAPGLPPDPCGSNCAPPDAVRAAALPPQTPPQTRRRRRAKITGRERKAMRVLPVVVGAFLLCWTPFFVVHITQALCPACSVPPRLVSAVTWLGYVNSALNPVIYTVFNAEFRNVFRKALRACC
In kind it is binding. To be noted: HEK-293T membranes, up to 10 μM; data not shown.

The target of a further test is D2-like receptors (Ovis aries, UniProt A0ACI6R699). The experiment in a line: [3H]YM-09151-2 competition binding, sheep brain striatum. To be noted: sheep striatal membranes; any concentration up to 10 μM.
In another test the target is human D3 receptor (Homo sapiens, UniProt P35462). In kind it is binding. To be noted: HEK-293T membranes, up to 10 μM; data not shown.
Test [1] has as its target α2 adrenoceptors (striatum, α2A and α2C). Put plainly: [3H]RX821002 binding. On the set-up: species or system sheep.
In test [2] the target is T2, α2A adrenoceptor (Homo sapiens, UniProt P08913).
T2 sequence (P08913 1-465): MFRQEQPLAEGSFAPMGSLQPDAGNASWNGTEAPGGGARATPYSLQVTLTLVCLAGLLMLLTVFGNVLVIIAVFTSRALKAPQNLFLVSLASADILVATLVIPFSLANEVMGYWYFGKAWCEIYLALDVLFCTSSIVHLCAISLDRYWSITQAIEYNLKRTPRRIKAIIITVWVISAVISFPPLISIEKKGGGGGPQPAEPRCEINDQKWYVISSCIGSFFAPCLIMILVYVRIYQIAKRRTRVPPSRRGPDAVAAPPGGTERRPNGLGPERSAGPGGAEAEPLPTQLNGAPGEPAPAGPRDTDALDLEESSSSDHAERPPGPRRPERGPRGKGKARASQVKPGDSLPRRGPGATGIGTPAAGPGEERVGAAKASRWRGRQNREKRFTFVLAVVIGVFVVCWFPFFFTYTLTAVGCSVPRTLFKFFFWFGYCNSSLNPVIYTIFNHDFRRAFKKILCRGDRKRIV
Put plainly: G protein activation BRET assay in transfected HEK-293T cells. In kind it is cell-based. To be noted: for EC50: read-out: Potency (EC50) G protein activation.

Test [3] addresses T3, α2C adrenoceptor (Homo sapiens, UniProt P18825).
T3 sequence (P18825 1-462): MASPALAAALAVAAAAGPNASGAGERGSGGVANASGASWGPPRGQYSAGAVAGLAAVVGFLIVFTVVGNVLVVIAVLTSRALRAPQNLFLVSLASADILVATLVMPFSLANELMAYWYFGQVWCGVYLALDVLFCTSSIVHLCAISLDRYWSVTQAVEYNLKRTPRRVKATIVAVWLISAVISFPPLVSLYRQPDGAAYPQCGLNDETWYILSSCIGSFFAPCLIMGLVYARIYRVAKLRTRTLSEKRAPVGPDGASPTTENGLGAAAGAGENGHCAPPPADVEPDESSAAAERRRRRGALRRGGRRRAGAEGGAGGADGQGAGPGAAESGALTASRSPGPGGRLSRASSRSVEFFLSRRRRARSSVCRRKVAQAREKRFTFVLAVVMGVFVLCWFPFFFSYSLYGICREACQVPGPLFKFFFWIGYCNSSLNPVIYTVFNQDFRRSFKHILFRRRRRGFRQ
The test is described as above. In kind it is cell-based.

In test [4] the target is α2 adrenoceptors (cortex, mostly α2A) (Ovis aries, UniProt A0ACI6PY47). Put plainly: [3H]RX821002 binding. Details: species or system sheep.
Test [5] addresses T2, α2A adrenoceptor. The experiment in a line: DMR label-free assay in CHO cells transfected with α2A-RLuc8 receptor. In kind it is cell-based. As to conditions: for DMR response: at 300 nM, Fig. 6 legend: 100 nM.
In test [6] the target is T2, α2A adrenoceptor. The experiment in a line: ERK1/2 phosphorylation in CHO cells transfected with α2A-RLuc8 receptor. In kind it is cell-based. As to conditions: 5 minutes; for MAPK activation (ERK1/2 phosphorylation): 1 μM.
The target of test [7] is T2, α2A adrenoceptor.
Test [8] has as its target T3, α2C adrenoceptor.
In the next test the target is D2-like receptor D2L. To be noted: read-out: EC50 values, G protein activation, across Gi/o protein subtypes; cited from earlier work.
Test [9] has as its target T3, α2C adrenoceptor. The experiment in a line: cell-based.
Setting [10] is: read-out: KDB1, striatum, vs [3H]RX821002, two-state dimer model, first protomer.
The mark [11] stands for this setting: read-out: KDB2, striatum, vs [3H]RX821002, two-state dimer model, second protomer.
[12] abbreviates: read-out: KDB1, cortex, vs [3H]RX821002, two-state dimer model, first protomer.
Where [13] appears, read: read-out: KDB2, cortex, vs [3H]RX821002, two-state dimer model, second protomer.

human D3 receptor, sequence (P35462 whole entry): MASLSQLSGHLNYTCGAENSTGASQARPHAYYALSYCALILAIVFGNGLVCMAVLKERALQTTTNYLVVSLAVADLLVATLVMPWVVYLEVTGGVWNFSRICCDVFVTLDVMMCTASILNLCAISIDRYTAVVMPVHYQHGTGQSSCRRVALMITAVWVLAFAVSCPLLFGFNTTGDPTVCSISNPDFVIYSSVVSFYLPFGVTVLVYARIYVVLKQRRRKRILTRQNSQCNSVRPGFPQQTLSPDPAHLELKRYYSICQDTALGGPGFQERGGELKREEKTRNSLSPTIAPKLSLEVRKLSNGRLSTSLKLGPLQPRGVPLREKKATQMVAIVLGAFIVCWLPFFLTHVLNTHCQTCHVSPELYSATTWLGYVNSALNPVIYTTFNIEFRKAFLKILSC
human D2 receptor, sequence (P14416 whole entry): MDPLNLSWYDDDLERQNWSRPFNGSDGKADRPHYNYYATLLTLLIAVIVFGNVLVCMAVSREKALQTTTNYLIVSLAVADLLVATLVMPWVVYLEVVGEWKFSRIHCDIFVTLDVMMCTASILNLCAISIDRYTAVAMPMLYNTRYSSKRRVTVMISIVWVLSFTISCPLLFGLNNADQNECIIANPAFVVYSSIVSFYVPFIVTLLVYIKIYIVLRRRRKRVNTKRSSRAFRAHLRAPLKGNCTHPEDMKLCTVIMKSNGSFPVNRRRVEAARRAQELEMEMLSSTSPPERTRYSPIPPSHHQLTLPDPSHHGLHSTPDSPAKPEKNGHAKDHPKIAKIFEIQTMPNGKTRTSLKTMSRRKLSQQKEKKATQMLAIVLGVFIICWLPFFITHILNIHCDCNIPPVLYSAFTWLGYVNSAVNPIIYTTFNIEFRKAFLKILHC

`COC1(C2=NCCN2)COc2ccccc2O1` (stereo not shown) [RX821002]: the “displacement of [3H]YM-09151-2 binding” value was “identical results” at human D2 receptor, “identical results” at human D4 receptor, “did not displace” at D2-like receptors and “identical results” on human D3 receptor.

Take `Clc1cccc(Cl)c1N=C1NCCN1` [Clonidine, clonidine hydrochloride]: the Kd is 0.036 nM in test [1] (setting [10]) and 20 nM in [1] (setting [11]). Also, at α2A adrenoceptor [2], the “Efficacy (Emax) G protein activation” value was 110 ± 10 percentage of NE values and 120 ± 2 percentage of NE values and 120 ± 5 percentage of NE values and 89 ± 6 percentage of NE values and 112 ± 8 percentage of NE values.

Consider `CCCN(C/C=C/I)C1CCc2ccc(O)cc2C1` (stereo not shown) [7-OH-PIPAT, 7-OH-PIPAT maleate], for which the “Efficacy (Emax) G protein activation” value was 41 ± 1 percentage of NE values at α2C adrenoceptor [3] (Gαi1, α2C, ND: not detectable); 90 ± 20 percentage of NE values on α2C adrenoceptor [3] (Gαi2, α2C); 90 ± 10 percentage of NE values on α2C adrenoceptor [3] (Gαi3, α2C); 98 ± 7 percentage of NE values on α2C adrenoceptor [3] (Gαo1, α2C); 106 ± 3 percentage of NE values on α2C adrenoceptor [3] (Gαo2, α2C); 94 ± 6 percentage of NE values on α2A adrenoceptor [2] (Gαi1, α2A). In addition, the “Efficacy (Emax) G protein activation” value is listed as 55 ± 2 percentage of NE values on α2A adrenoceptor [2] (Gαi2, α2A); 71 ± 6 percentage of NE values on α2A adrenoceptor [2] (Gαi3, α2A); 81 ± 9 percentage of NE values on α2A adrenoceptor [2] (Gαo1, α2A); 85 ± 4 percentage of NE values at α2A adrenoceptor [2] (Gαo2, α2A). The EC50 at α2C adrenoceptor [3] (read-out: Potency (EC50) G protein activation, Gαi3, α2C) was determined as 5 ± 3 nM; on α2A adrenoceptor [2] (Gαo1, α2A), 100 ± 20 nM; at α2A adrenoceptor [2] (Gαo2, α2A) it was 66 ± 7 nM. Also, the “DCB (cooperativity index)” value in [4] (cortex, vs [3H]RX821002) is reported as “DCB: -1.1”. Further, the Kd in [4] (setting [12]) came out at 9 nM; in test [4] (setting [13]), 430 nM; in test [1] (setting [10]), 51 nM. For the same molecule, on α2A adrenoceptor [5], the DMR response result is given as “significant response”. Also, on α2A adrenoceptor [6], the “MAPK activation (ERK1/2 phosphorylation)” value is given as “able to produce MAPK activation”.

As to `COC1(C2=NCCN2)COc2ccccc2O1` (stereo not shown) [[^3H]RX821002], the Kd in [4] (read-out: affinity value (KDA1) of the radioligand, saturation experiments, cortical tissue, n=4-8) was found to be 0.06 ± 0.01 nM; in [1] (read-out: affinity value (KDA1) of the radioligand, saturation experiments, striatal tissue, n=4-8), 0.07 ± 0.01 nM.

As for `CC1c2ccccc2CN1CC1=NCCN1` (stereo not shown) [BRL 44408], the “effect on DA and NE activation of DMR” value on α2A adrenoceptor [5] (BRL 44408 1 μM, 30 minutes pretreatment) is “decreased”.

`Cc1ncc(CN2CC=C(c3ccccc3)CC2)c(N)n1.Cl.Cl` [RO-105824, RO-105824 dihydrochloride]: the “inhibition of the agonistic effect of clonidine (1 μM)” value on α2C adrenoceptor [3] (α2C, Gαo1) was “did counteract”; at α2A adrenoceptor [2] (α2A, Gαo1) it was “did counteract”. In addition, the “G protein activation (agonist effect)” value on α2C adrenoceptor [3] (α2C, any of the Gαi/o subtypes) is reported as “did not produce a significant activation”; at α2A adrenoceptor [2] (α2A, Gαi2 and Gαi3) it was “small efficacy”; at α2A adrenoceptor [2] (α2A, Gαi/o subtypes other than Gαi2 and Gαi3) it was “did not produce a significant activation”. Besides, the Kd in [4] (setting [12]) is 0.055 nM; in [4] (setting [13]) it was 4000 nM; in test [1] (setting [10]) it was 0.42 nM. Further, the DMR response entry on α2A adrenoceptor [5] is listed as “substantially lower”. On α2A adrenoceptor [6], the “MAPK activation (ERK1/2 phosphorylation)” value was “able to produce MAPK activation”.

Consider `COC(=O)[C@@H]1[C@H]2C[C@H]3c4[nH]c5ccccc5c4CCN3C[C@@H]2CC[C@@H]1O` [yohimbine, yohimbine hydrochloride], for which the “blockade of Gαo1 activation induced by 10 μM 7-OH-PIPAT or 10 μM quinpirole” value at α2C adrenoceptor [3] and on α2A adrenoceptor [2] was “completely blocked” each time. For the same molecule, the “blockade of Gi/o-dependent effects of NE and DA on adenylyl cyclase” value at α2A adrenoceptor [7] (yohimbine 10 μM) and on α2C adrenoceptor [8] (yohimbine 10 μM) was “blocked” in each case.

Regarding `NCCc1ccc(O)c(O)c1` [DA, Dopamine hydrochloride], the Kd stood at 6 nM in [1] (setting [10]) and 1000 nM in test [1] (setting [11]). Besides, the EC50 on D2-like receptor D2L is 130 to 400 nM.

For the molecule `NC[C@H](O)c1ccc(O)c(O)c1` [NE, L-(-)-norepinephrine (+)-bitartrate salt monohydrate], the “Efficacy (Emax) G protein activation” value is reported as 100 ± 2 percentage of NE values on α2C adrenoceptor [3] (Gαi1, α2C, ND: not detectable); 100 ± 7 percentage of NE values on α2C adrenoceptor [3] (Gαi2, α2C); 100 ± 9 percentage of NE values at α2C adrenoceptor [3] (Gαi3, α2C); 100 ± 10 percentage of NE values on α2C adrenoceptor [3] (Gαo1, α2C); 100 ± 8 percentage of NE values on α2C adrenoceptor [3] (Gαo2, α2C); 100 ± 5 percentage of NE values on α2A adrenoceptor [2] (Gαi1, α2A). Moreover, the “Efficacy (Emax) G protein activation” value on α2A adrenoceptor [2] (Gαi2, α2A) is reported as 100 ± 10 percentage of NE values; at α2A adrenoceptor [2] (Gαi3, α2A) it was 100 ± 10 percentage of NE values; on α2A adrenoceptor [2] (Gαo1, α2A) it was 100 ± 7 percentage of NE values; on α2A adrenoceptor [2] (Gαo2, α2A), 100 ± 9 percentage of NE values. Further, the EC50 on α2C adrenoceptor [3] (Potency (EC50) G protein activation, Gαi3, α2C) is 0.4 ± 0.2 nM; on α2C adrenoceptor [9], 7 ± 4 nM. Moreover, the “Gs activation (inverted U-shaped curve, high ligand concentrations)” value on α2A adrenoceptor [7] (at 10 and 100 μM) was “promoted Gs activation”; at α2C adrenoceptor [8] (at 10 and 100 μM), “promoted Gs activation”. Also, on α2A adrenoceptor [6] (300 nM), the “increase of ERK1/2 phosphorylation levels” value is 3 fold over basal.
